Experimental data reported in patent US7485667B2, “Acetylenic aryl sulfonate hydroxamic acid tace and matrix metalloproteinase inhibitors” (Wyeth Holdings Corporation, priority 2002, dated 2009).

Experiments:
THP-1 cells = experiment: THP-1 soluble protein assay (LPS-stimulated THP-1 cells, ELISA); format: cell-based; conditions: Homo sapiens
From the text: Human Monocytic THP-1 Cell Differentiation Assay for Soluble Proteins (THP-1 Soluble Protein Assay)
Mitogenic stimulation of THP-1 cells cause differentiation into macrophage like cells with concomitant secretion of tumor necrosis factor (TNF-a) and TNF receptor (TNF-R p75/80 and TNF-R p55/60) and Interleukin-8 (IL-8), among other proteins. In addition, non-stimulated THP-1 cells shed both the p75/80 and the p55/60 receptors over time. The release of membrane bound TNF-α and possibly TNF-R p75/80 and TNF-R p55/60, but not IL-8, is mediated by an enzyme called TNF-a converting enzyme or TACE.
THP-1 cells (from ATCC) are a human monocytic cell line which are obtained from the peripheral blood of a person with acute monocytic leukemia. They can be grown in culture and differentiated into macrophage like cells by stimulation with mitogens.
For the assay, THP-1 cells are seeded from an ATCC stock which is previously grown and frozen back at 5×10^6/ml/vial. One vial is seeded into a T25-flask with 16 mls of RPMI-1640 with glutamax (Gibco) media containing 10% fetal bovine serum, 100 units/ml penicillin, 100 μg/ml streptomycin, and 5×10^−5 M 2-mercapto-ethanol (THP-1 media). Each vial of cells are cultured for about two weeks prior to being used for an assay and then are used for only 4 to 6 weeks to screen compounds. Cells are subcultured on Mondays and Thursdays to a concentration of 1×10^5/ml.
To perform an assay, the THP-1 cells are co-incubated in a 24 well plate with […] of a 24 mg/ml stock of Lipopolysacharide (LPS) (Calbiochem Lot# B13189) at 37° C. in 5% CO2 at a concentration of 1.091×10^6 cells/ml (1.1 ml/well) for a total of 24 hours. At the same time, […] of drug, vehicle or THP-1 media is plated in appropriate wells to give a final volume of 1.2 ml/well. Standard and test compounds are dissolved in DMSO at a concentration of 36 mM and diluted from here to the appropriate concentrations in THP-1 media and added to the wells at the beginning of the incubation period to give final concentrations of […], 300 nM, and 100 nM. Cell exposure to DMSO is limited to 0.1% final concentration. Positive control wells are included in the experiment which had mitogen added but no drug. Vehicle control wells are included as well, which are identical to the positive control wells, except that DMSO is added to give a final concentration of 0.083%. Negative control wells are included in the experiment which had vehicle but no mitogen or drug added to the cells. Compounds can be evaluated for their effect on basal (non-stimulated) shedding of the receptors by replacing the LPS with […] of THP-1 media. Plates are placed into an incubator set at 5% CO2 and at 37° C. […]
In addition, at the 24 hours timepoint, and the cells for each treatment group are collected by resuspension in 500 μl/well of THP-1 media and transferred into a FACS tube. […] The samples are run on a Becton Dickinson FaxCaliber FLOW cytometry machine and the amount of dye taken up by each cell is measured in the high red wavelength (FL3). […] The percent of live cells is calculated by the number of cells not stained with PI, divided by the total number of cells in the sample. The viability values calculated for the drug treated groups are compared to the viability value calculated for the vehicle treated mitogen stimulated group (“vehicle positive control”) to determine the “percent change from control”. […]

MMP-1 = molecular target: T1, MMP-1 (Homo sapiens, UniProt P03956); experiment: MMP-1 inhibition (thiopeptide or fluorescent peptide substrate); format: biochemical; conditions: read-out: MMP-1 % Inhib
T1 sequence (P03956 100-469): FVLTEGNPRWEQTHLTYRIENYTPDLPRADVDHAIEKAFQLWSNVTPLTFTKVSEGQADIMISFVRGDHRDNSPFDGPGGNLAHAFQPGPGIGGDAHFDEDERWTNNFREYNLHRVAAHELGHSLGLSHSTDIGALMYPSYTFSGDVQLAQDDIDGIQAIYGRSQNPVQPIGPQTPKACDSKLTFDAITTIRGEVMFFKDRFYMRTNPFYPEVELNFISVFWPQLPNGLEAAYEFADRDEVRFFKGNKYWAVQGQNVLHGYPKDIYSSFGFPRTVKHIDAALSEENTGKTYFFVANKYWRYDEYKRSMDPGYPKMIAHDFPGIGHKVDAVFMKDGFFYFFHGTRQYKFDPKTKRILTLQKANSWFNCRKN
Method: (§1) Test Procedures for Measuring MMP-1 and MMP-13 Inhibition
(§2) These standard pharmacological test procedures are based on the cleavage of a thiopeptide substrates such as Ac-Pro-Leu-Gly(2-mercapto-4-methyl-pentanoyl)-Leu-Gly-OEt by the matrix metalloproteinases MMP-1 or MMP-13 (collagenases) which results in the release of a substrate product that reacts colorimetrically with DTNB (5,5′-dithiobis(2-nitro-benzoic acid)). The enzyme activity is measured by the rate of the color increase. The thiopeptide substrate is made up fresh as a 20 mM stock in 100% DMSO and the DTNB is dissolved in 100% DMSO as a 100 mM stock and stored in the dark at room temperature. Both the substrate and DTNB are diluted together to 1 mM with substrate buffer (50 mM HEPES pH 7.5, 5 mM CaCl2) before use. The stock of enzyme is diluted with buffer (50 mM HEPES, pH 7.5, 5 mM CaCl2, 0.02% Brij) to the desired final concentration. The buffer, enzyme, vehicle or inhibitor, and DTNB/substrate are added in this order to a 96 well plate (total reaction volume of 200 μl) and the increase in color is monitored spectrophotometrically for 5 minutes at 405 nm on a plate reader and the increase in color over time is plotted as a linear line.
(§3) Alternatively, a fluorescent peptide substrate is used. In this test procedure, the peptide substrate contains a fluorescent group and a quenching group. Upon cleavage of the substrate by an MMP, the fluorescence that is generated is quantitated on the fluorescence plate reader. The assay is run in HCBC assay buffer (50 mM HEPES, pH 7.0, 5 mM Ca^+2, 0.02% Brij, 0.5% Cysteine), with human recombinant MMP-1 or MMP-13. The substrate is dissolved in methanol and stored frozen in 1 mM aliquots. For the assay, substrate and enzymes are diluted in HCBC buffer to the desired concentrations. Compounds are added to the 96 well plate containing enzyme and the reaction is started by the addition of substrate. The reaction is read (excitation 340 nm, emission 444 nm) for 10 min. and the increase in fluorescence over time is plotted as a linear line.
(§4) For either the thiopeptide or fluorescent peptide test procedures, the slope of the line is calculated and represents the reaction rate. The linearity of the reaction rate is confirmed (r^2>0.85). The mean (x±sem) of the control rate is calculated and compared for statistical significance (p<0.05) with drug-treated rates using Dunnett's multiple comparison test. Dose-response relationships can be generated using multiple doses of drug and IC50 values with 95% Cl are estimated using linear regression.

[1] = molecular target: TNF-α converting enzyme (TACE) (Homo sapiens, UniProt P78536); experiment: TACE inhibition (fluorescent peptidyl substrate); format: biochemical
Method: Test Procedure for Measuring TACE Inhibition
Using 96-well black microtiter plates, each well receives a solution composed of 10 μL TACE (final concentration 1 μg/mL), 70 μL Tris buffer, pH 7.4 containing 10% glycerol (final concentration 10 mM), and 10 μL of test compound solution in DMSO (final concentration 1 μM, DMSO concentration <1%) and incubated for 10 minutes at room temperature. The reaction is initiated by addition of a fluorescent peptidyl substrate (final concentration 100 μM) to each well and then shaking on a shaker for 5 sec.
The reaction is read (excitation 340 nm, emission 420 nm) for 10 min. and the increase in fluorescence over time is plotted as a linear line. The slope of the line is calculated and represents the reaction rate.
as §4, with “The” for “For either the thiopeptide or fluorescent peptide test procedures, the slope of the line is calculated and represents the reaction rate. The”, “generate” for “generated”

MMP-13 = MMP-13 (Homo sapiens, UniProt P45452); experiment: MMP-13 inhibition (thiopeptide or fluorescent peptide substrate); format: biochemical; conditions: read-out: MMP-13 % Inhib
Method: as §1, §2, §3, §4

TNF-α converting enzyme (TACE), sequence (P78536 215-824, species assumed): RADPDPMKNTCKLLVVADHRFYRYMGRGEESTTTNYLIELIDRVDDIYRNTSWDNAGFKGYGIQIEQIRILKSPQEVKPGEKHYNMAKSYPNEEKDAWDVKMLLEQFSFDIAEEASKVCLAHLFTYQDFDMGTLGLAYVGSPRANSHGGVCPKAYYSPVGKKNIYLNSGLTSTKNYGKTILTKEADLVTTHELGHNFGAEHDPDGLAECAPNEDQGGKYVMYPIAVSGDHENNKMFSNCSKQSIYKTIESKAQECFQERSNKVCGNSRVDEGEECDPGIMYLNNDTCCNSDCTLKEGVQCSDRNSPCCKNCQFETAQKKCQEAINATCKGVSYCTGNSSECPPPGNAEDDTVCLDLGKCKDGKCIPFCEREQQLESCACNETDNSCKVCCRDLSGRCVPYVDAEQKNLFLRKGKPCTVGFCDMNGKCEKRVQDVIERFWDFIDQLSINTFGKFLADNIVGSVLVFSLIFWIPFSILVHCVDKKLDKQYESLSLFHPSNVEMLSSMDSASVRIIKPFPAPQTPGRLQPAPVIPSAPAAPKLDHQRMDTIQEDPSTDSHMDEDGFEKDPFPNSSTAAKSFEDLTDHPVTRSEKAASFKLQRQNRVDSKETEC

Structure (SMILES) | inhibition at 1 µM (THP-1 cells) [%] | inhibition at 10 µM (MMP-1) [%] | IC50 [1] [nM] | inhibition at 10 µM (MMP-13) [%]
CC#CCOc1ccc(S(=O)(=O)Oc2c(C)cccc2C(=O)NO)cc1 [Example 1, 2-[(Hydroxyamino)carbonyl]-6-methylphenyl 4-(2-butynyloxy)benzenesulfonate] | 11 | 11 | 19 | 38
CC#CCOc1ccc(S(=O)(=O)Oc2c(OC)cccc2C(=O)NO)cc1 [Example 2, 2-[(Hydroxyamino)carbonyl]-6-methoxyphenyl 4-(2-butynyloxy)benzenesulfonate] | 1 | 7 | 13 | 56
CC#CCOc1ccc(S(=O)(=O)Oc2ccc(C)cc2C(=O)NO)cc1 [Example 3, 2-[(Hydroxyamino)carbonyl]-4-methylphenyl 4-(2-butynyloxy)benzenesulfonate] | 0 | 11 | 31 | 27
CC#CCOc1ccc(S(=O)(=O)Oc2c(C(=O)NO)cc(C(C)C)cc2C(C)C)cc1 [Example 4, 2-[(Hydroxyamino)carbonyl]-4,6-diisopropylphenyl 4-(2-butynyloxy)benzenesulfonate] | 6 | 3 | 361 | 45
CC#CCOc1ccc(S(=O)(=O)Oc2cc3ccccc3cc2C(=O)NO)cc1 [Example 5, 3-[(Hydroxyamino)carbonyl]-2-naphthyl 4-(2-butynyloxy)benzenesulfonate] | 0 | 16 | 67 | 64
